Results taken from patent US5151497A, “Histidyl peptide derivatives” (Japan Tobacco Inc., priority 1990, dated 1992).
Read-outs that look alike come from different tables or passages of the source.

Legend:
Type in all cases: in vivo
[1] = tested on: Wistar male rats; experiment: Flexor reflex in spinalized rats; conditions: intravenous; for response vs control in vivo at 0.1 mg/kg / response vs control in vivo at 0.3 mg/kg: Rattus norvegicus; for response vs control in vivo at 0.1 mg/kg / response vs control in vivo at 0.3 mg/kg / Reflex amplitude (%) 10 min. after / Reflex amplitude (%) 60 min. after: pre-dose mean = 100%; for Area below the reflex amplitude linking line: covering 60 minutes
Description: Wistar male rats (weighing 450-520 g) were anesthetized with ether, and the cervical part of […] was exposed, into which a tracheal cannula was inserted. The vagus nerves were severed bilaterally at the cervical region. Thereafter, the cervical vertebra C1 segment was transected, and rapidly, artificial ventilation was given with the use of an artificial respirator (Shinano Factory 60 rpm. 4 ml/stroke). The rat was placed on a thermostated apparatus in which water thermostated at 37° C. was circulated and fixed thereto at forelimbs, right hindlimb, tooth and tail. A venous cannula was inserted into the femoral vein in the right hindlimb and two needle electrodes were subcutaneously inserted into the left skin of the toe, and a piece of thread was attached to the limb with the edge of the thread bonded to a force-displacement transducer. Tension of about 5 g was applied to the thread. Through the electrodes, electric stimuli of 50-100 V were applied once per 30 seconds. The flexor reflex was recorded on the polygraph via a force-displacement transducer. After the reaction became constant in about one-hours' lapse for stabilization, the test compound dissolved in saline was intravenously administered. Thereafter, the reaction was recorded for 1 hour. In the data, taking the mean of the three reactions just before administration of the test compound for 100%, the reflex amplitude at 1-, 3-, 5-, 8-, 10-, 15-, 20-, 30-, 40-, 50- and 60-minutes' lapse after administration of the test compound were calculated. In Table 3, there are shown calculated area below the straight line linking the obtained reflex amplitude at the respective above-mentioned time covering 60 […], and the reflex amplitude at 10- and 60-minutes' lapse after administration (Table 3).

[2] = tested on: ICR male mice; experiment: Anti-chlorpromazine action (locomotor stimulant action); conditions: SC, mice given chlorpromazine.HCl 5 mg/kg s.c. one hour before, from regression line; for ED (3000 locomotor counts): Mus musculus, 2 h, read-out: Concentration of test compound necessary for inducing 3000 count of automatism quantity in 2 hours
Description: ICR male mice weighing 35-40 g (four animals per group) were subcutaneously administered with chlorpromazine.HCl at the dose of 5 mg/kg and immediately set in the automatic locomotor-measuring apparatus (AUTOMEX). One hour later, the test compound dissolved in saline was subcutaneously administered, and the locomotor activity was measured every 15 minutes for 120 minutes. The total locomotor activity during the period of 120 minutes was calculated and the regression line was estimated based on the method of least squares, from which the amount of the test compound necessary for inducing 3000 locomotor-count was estimated (Table 2).

[3] = tested on: ICR male mice; experiment: Anti-reserpine action (antagonistic action against hypothermia); conditions: SC, mice given reserpine 5 mg/kg s.c. 3 or 3.5 hours before, from regression line; for ED (1 degC rise in body temperature): Mus musculus, 2 h, read-out: Concentration of test compound necessary for raising body temperature by 1° C. on the average for 120 minutes
Description: ICR male mice weighing 35-40 g were subcutaneously administered with reserpine at the dose of 5 mg/kg. About 2 hours later, each of the mice was held by a mouse-holder, and a body temperature sensor was intrarectally inserted. Thereafter, the body temperature was automatically measured every 10 minutes. The test compound dissolved in saline was subcutaneously administered 3 or 3.5 hours after administration of reserpine. After the administration of the test compound, the body temperature was measured every 10 minutes over the period of 120 minutes. The area below the body temperature line during the period was calculated, from which the regression line was estimated based upon least square method, and estimated was the amount of the test compound necessary for raising the body temperature by 1° C. on the average for 120 minutes from that just before the administration of the test compound (Table 1).

[4] = 1 h, 0.1 mg/kg, read-out: Reflex amplitude (%) 60 min. after
[5] = 1 h, 0.3 mg/kg (footnote *), read-out: Reflex amplitude (%) 60 min. after
[6] = 10 min, 0.1 mg/kg, read-out: Reflex amplitude (%) 10 min. after
[7] = 10 min, 0.3 mg/kg (footnote *), read-out: Reflex amplitude (%) 10 min. after

C[C@H]1CC(=O)C[C@H]1C(=O)N[C@@H](Cc1c[nH]cn1)C(=O)N1CCC[C@H]1C(N)=O (mixture of isomers) [Compound 19, N^α -(cis-2-Methyl-4-oxocyclopentanecarbonyl)-L-histidyl-L-prolinamide]
response vs control in vivo at 0.1 mg/kg [1, 4]: 246%
response vs control in vivo at 0.3 mg/kg [1, 5]: 340%

C[C@@H]1CC(=O)C[C@H]1C(=O)N[C@@H](Cc1c[nH]cn1)C(=O)N1CCC[C@H]1C(N)=O (mixture of isomers) [Compound 20, N^α -(trans-2-Methyl-4-oxocyclopentanecarbonyl)-L-histidyl-L-prolinamide]
response vs control in vivo at 0.1 mg/kg [1, 4]: 107%
response vs control in vivo at 0.3 mg/kg [1, 5]: 223%

C[C@@H]1CC(=O)N[C@@H]1C(=O)N[C@@H](Cc1cnc[nH]1)C(=O)N1CSC[C@H]1C(N)=O (relative stereo) [Compound 3, 3-[N^α -(cis-3-Methylpyroglutamyl)-L-histidyl]-L-thiazolidine-4-carboxamide]
Concentration of test compound necessary for inducing 3000 count of automatism quantity in 2 hours [2]: 0.47 mg/kg
Area below the reflex amplitude linking line ([1]; 0.1 mg/kg): 13811
Reflex amplitude (%) 10 min. after ([1]; 0.1 mg/kg): 190.5%
Reflex amplitude (%) 60 min. after ([1]; 0.1 mg/kg): 277.6%
Concentration of test compound necessary for raising body temperature by 1° C. on the average for 120 minutes [3]: 0.20 mg/kg

C[C@H]1CC(=O)N[C@@H]1C(=O)N[C@@H](Cc1c[nH]cn1)C(=O)N1CSC[C@H]1C(N)=O (relative stereo) [Compound 4, 3-[N^α -(trans-3-Methylpyroglutamyl)-L-histidyl]-L-thiazolidine-4-carboxamide]
Concentration of test compound necessary for inducing 3000 count of automatism quantity in 2 hours [2]: 0.63 mg/kg
Area below the reflex amplitude linking line ([1]; 0.1 mg/kg): 9404
Reflex amplitude (%) 10 min. after ([1]; 0.1 mg/kg): 142.8%
Reflex amplitude (%) 60 min. after ([1]; 0.1 mg/kg): 163.9%
Concentration of test compound necessary for raising body temperature by 1° C. on the average for 120 minutes [3]: 0.34 mg/kg

C[C@@H]1CC(=O)N[C@@H]1C(=O)N[C@@H](Cc1c[nH]cn1)C(=O)N1CCC[C@H]1C(N)=O [Compound 1, N^α -(cis-3-Methylpyroglutamyl)-L-histidyl-L-prolinamide]
response vs control in vivo at 0.1 mg/kg [1, 4]: 298%

C[C@H]1CC(=O)N[C@@H]1C(=O)N[C@@H](Cc1c[nH]cn1)C(=O)N1CCC[C@H]1C(N)=O [Compound 2, N^α -(trans-3-Methylpyroglutamyl)-L-histidyl-L-prolinamide]
response vs control in vivo at 0.1 mg/kg [1, 4]: 107%

C[C@@H]1CC(=O)O[C@@H]1C(=O)N[C@@H](Cc1c[nH]cn1)C(=O)N1CCC[C@H]1C(N)=O [Compound 5, N^α -[(2S,3R)-Tetrahydro-3-methyl-5-oxo-2-furancarbonyl]-L-histidyl-L-prolinamide]
response vs control in vivo at 0.1 mg/kg [1, 4]: 168%

NC(=O)[C@@H]1CCCN1C(=O)[C@H](Cc1c[nH]cn1)NC(=O)[C@H]1NC(=O)C[C@H]1c1ccccc1 [Compound 11, N^α -(cis-3-Phenylpyroglutamyl)-L-histidyl-L-prolinamide]
ED (3000 locomotor counts) [2]: 1.89 mg/kg
response vs control in vivo at 0.1 mg/kg [1, 6]: 140%
response vs control in vivo at 0.1 mg/kg [1, 4]: 241%
Area below the reflex amplitude linking line ([1]; 0.1 mg/kg): 11321
ED (1 degC rise in body temperature) [3]: 0.28 mg/kg

NC(=O)[C@@H]1CCCN1C(=O)[C@H](Cc1c[nH]cn1)NC(=O)C1CCC(=O)C1 (stereo partly drawn) [Compound 13, N^α -(3-Oxocyclopentanecarbonyl)-L-histidyl-L-prolinamide]
response vs control in vivo at 0.1 mg/kg [1, 4]: 167%

NC(=O)[C@@H]1CCCN1C(=O)[C@H](Cc1c[nH]cn1)NC(=O)[C@@H]1CCC(=O)C1 [Compound 16, N^α -[(1R)-3-Oxocyclopentanecarbonyl]-L-histidyl-L-prolinamide]
response vs control in vivo at 0.1 mg/kg [1, 4]: 252%

CC1(C)CC(=O)CC1C(=O)N[C@@H](Cc1c[nH]cn1)C(=O)N1CCC[C@H]1C(N)=O (stereo partly drawn) [Compound 21, N^α -(2,2-Dimethyl-4-oxocyclopentanecarbonyl)-L-histidyl-L-prolinamide]
response vs control in vivo at 0.1 mg/kg [1, 4]: 145%
response vs control in vivo at 0.3 mg/kg [1, 5]: 274%

CC(C)C[C@H](NC(=O)[C@H]1NC(=O)C[C@H]1C)C(=O)N1CCC[C@H]1C(N)=O [Compound 27A, N-(cis-3-Methylpyroglutamyl)-L-leucyl-L-prolinamide]
response vs control in vivo at 0.1 mg/kg [1, 6]: 126%
response vs control in vivo at 0.1 mg/kg [1, 4]: 156%
Area below the reflex amplitude linking line ([1]; 0.1 mg/kg): 8769

CSCC[C@H](NC(=O)[C@H]1NC(=O)C[C@H]1C)C(=O)N1CCC[C@H]1C(N)=O [Compound 28A, N-(cis-3-Methylpyroglutamyl)-L-methionyl-L-prolinamide]
response vs control in vivo at 0.1 mg/kg [1, 6]: 125%
response vs control in vivo at 0.1 mg/kg [1, 4]: 195%
Area below the reflex amplitude linking line ([1]; 0.1 mg/kg): 9188

CCC[C@H](NC(=O)[C@H]1NC(=O)C[C@H]1C)C(=O)N1CCC[C@H]1C(N)=O [Compound 29A, N-(cis-3-Methylpyroglutamyl)-L-norvalyl-L-prolinamide]
response vs control in vivo at 0.3 mg/kg [1, 7]: 124%
response vs control in vivo at 0.3 mg/kg [1, 5]: 121%
Area below the reflex amplitude linking line ([1]; 0.3 mg/kg (footnote *)): 7063

CCCC[C@H](NC(=O)[C@H]1NC(=O)C[C@H]1C)C(=O)N1CCC[C@H]1C(N)=O [Compound 31A, N-(cis-3-Methylpyroglutamyl)-L-norleucyl-L-prolinamide]
response vs control in vivo at 0.1 mg/kg [1, 6]: 130%
response vs control in vivo at 0.1 mg/kg [1, 4]: 129%
Area below the reflex amplitude linking line ([1]; 0.1 mg/kg): 8126

CCC[C@H](NC(=O)[C@H]1NC(=O)CC1(C)C)C(=O)N1CCC[C@H]1C(N)=O [Compound 33A, N-(3,3-Dimethylpyroglutamyl)-L-norvalyl-L-prolinamide]
response vs control in vivo at 0.3 mg/kg [1, 7]: 119%
response vs control in vivo at 0.3 mg/kg [1, 5]: 120%
Area below the reflex amplitude linking line ([1]; 0.3 mg/kg (footnote *)): 7172

NC(=O)[C@@H]1CCCN1C(=O)[C@H](Cc1ccccc1)NC(=O)[C@@H]1CCC(=O)C1 [Compound 37, N-[(1R)-3-oxocyclopentanecarbonyl]-L-phenylalanyl-L-prolinamide]
Area below the reflex amplitude linking line ([1]; 0.3 mg/kg (footnote *)): 5868

NC(=O)C1CCCN1C(=O)C(Cc1cnc[nH]1)NC(=O)C1CCC(=O)O1 (stereo not shown) [DN1417, reference compound]
Concentration of test compound necessary for inducing 3000 count of automatism quantity in 2 hours [2]: 4.34 mg/kg
Area below the reflex amplitude linking line ([1]; 0.3 mg/kg (footnote *)): 8152
Reflex amplitude (%) 10 min. after ([1]; 0.3 mg/kg (footnote *)): 113.7%
Reflex amplitude (%) 60 min. after ([1]; 0.3 mg/kg (footnote *)): 162.8%
Concentration of test compound necessary for raising body temperature by 1° C. on the average for 120 minutes [3]: 2.06 mg/kg

NC(=O)[C@@H]1CCCN1C(=O)[C@H](Cc1c[nH]cn1)NC(=O)[C@@H]1CCC(=O)N1 [TRH, L-pyroglutamyl-L-histidyl-L-prolinamide, reference compound]
ED (3000 locomotor counts) [2]: 6.82 mg/kg
response vs control in vivo at 0.1 mg/kg [1, 6]: 118%
response vs control in vivo at 0.1 mg/kg [1, 4]: 79.3%
Area below the reflex amplitude linking line ([1]; 0.1 mg/kg): 6418
ED (1 degC rise in body temperature) [3]: 2.52 mg/kg
